Data taken from patent US20260265248A1, “NOVEL PD-L1 INHIBITORS” (AFFIRMA BIOTECH S. L., priority 2023, published 2026).

target: T1, PD-1/PD-L1 (Homo sapiens, UniProt Q9NZQ7); assay: PD1-PDL1 HTRF assay; details: PD-1/PD-L1 homogenous time-resolved fluorescence (HTRF) binding assay; Tag1-PDL1 5 nM, Tag2-PD1 50 nM
T1 construct: purchased CisBio
How it was run: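 Compound (8 concentrations) was preincubated 15 min at room temperature with Tag1-PD-L1 and Tag2-PD-1, added as 5 nM and 50 nM solutions. Eu-labelled anti-Tag1 and XL665-labelled anti-Tag2 were then added for 1 h, and the 665/620 nm ratio (×10^4; excitation 320 nm) was fitted to the Hill equation for IC50.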

T1 sequence (Q9NZQ7 19-238 limits assumed): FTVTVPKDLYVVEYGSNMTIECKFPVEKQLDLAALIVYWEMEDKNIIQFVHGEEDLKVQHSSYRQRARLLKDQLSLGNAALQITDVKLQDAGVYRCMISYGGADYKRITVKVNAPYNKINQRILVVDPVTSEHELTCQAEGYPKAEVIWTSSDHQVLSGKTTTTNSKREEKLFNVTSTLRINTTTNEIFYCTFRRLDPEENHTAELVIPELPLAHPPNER

Row | Structure (SMILES) | IC50 [nM]
1 | Cc1c(-c2ccc3c(c2)OCCO3)cccc1-c1ccn2c(-c3ccc(CN4C[C@H](O)C[C@H]4C(=O)O)cc3)nnc2c1 [Example 60, (25,4R)-1-(4-(7-(3-(2,3-dihydrobenzo[b][1,4]dioxin-6-yl)-2-methylphenyl)-[1,2,4]triazolo[4,3-a]pyridin-3-yl)benzyl)-4-hydroxypyrrolidine-2-carboxylic acid] | 100 to 1000
2 | Cc1c(Nc2nccc3cc(CN4CC[C@@H](O)C4)cnc23)cccc1-c1cccc(-c2ccn3c(-c4ccc(CNC[C@@H]5CCC(=O)N5)cc4)nnc3c2)c1C [Example 79, (S)-5-(((4-(7-(3′-((3-(((R)-3-hydroxypyrrolidin-1-yl)methyl)-1,7-naphthyridin-8-yl)amino)-2,2′-dimethyl-[1,1′-biphenyl]-3-yl)-[1,2,4]triazolo[4,3-a]pyridin-3-yl)benzyl)amino)methyl)pyrrolidin-2-one] | ≤ 10
3 | Cc1c(NC(=O)c2ccc(CNCCO)cn2)cccc1-c1cccc(-c2ccn3nc(CNCCO)nc3c2)c1C [Example 100, 5-(((2-hydroxyethyl)amino)methyl)-N-(3′-(2-(((2-hydroxyethyl)amino)methyl)-[1,2,4]triazolo[1,5-a]pyridin-7-yl)-2,2′-dimethyl-[1,1′-biphenyl]-3-yl)picolinamide] | ≤ 10
4 | Cc1c(-c2ccc(CNC[C@@H]3CCC(=O)N3)cc2)cccc1-c1cccc(-c2ccn3nc(CNC[C@@H]4CCC(=O)N4)nc3c2)c1C [Example 99, (S)-5-((((21,2″-dimethyl-3″-(2-(((((S)-5-oxopyrrolidin-2-yl)methyl)amino)methyl)-[1,2,4]triazolo[1,5-a]pyridin-7-yl)-[1,1′:3′,1″-terphenyl]-4-yl)methyl)amino)methyl)pyrrolidin-2-one] | ≤ 10
5 | Cc1c(-c2ccc(CNCCO)cc2)cccc1-c1cccc(-c2ccn3c(CN4CCC[C@@H]4C(=O)O)nnc3c2)c1C [Example 88, ((7-(4″-(((2-hydroxyethyl)amino)methyl)-2,2′-dimethyl-[1,1′:3′,1″-terphenyl]-3-yl)-[1,2,4]triazolo[4,3-α]pyridin-3-yl)methyl)-D-proline] | 10 to 100
6 | CC(=O)NCCNCc1ccc(-c2cccc(-c3cccc(-c4ccn5nc(CNCCNC(C)=O)nc5c4)c3Cl)c2Cl)cc1 [Example 109, N-(2-(((7-(4″-(((2-acetamidoethyl)amino)methyl)-2,2′-dichloro-[1,1′:3′,1″-terphenyl]-3-yl)-[1,2,4]triazolo[1,5-a]pyridin-2-yl)methyl)amino)ethyl)acetamide] | ≤ 10
7 | Cc1c(-c2ccc3c(c2)OCCO3)cccc1-c1ccn2c(-c3ccc(CN4CCC[C@H]4C(=O)O)cc3)cnc2c1 [Example 37, (4-(7-(3-(2,3-dihydrobenzo[b][1,4]dioxin-6-yl)-2-methylphenyl)imidazo[1,2-a]pyridin-3-yl)benzyl)proline] | 100 to 1000
8 | CC(C)(CO)NCc1nc2cc(-c3cccc(-c4cccc(-c5ccc(CNCCO)cc5)c4Cl)c3Cl)ccn2n1 [Example 116, 2-(((7-(2,2′-dichloro-4″-(((2-hydroxyethyl)amino)methyl)-[1,1′:31,1″-terphenyl]-3-yl)-[1,2,4]triazolo[1,5-a]pyridin-2-yl)methyl)amino)-2-methylpropan-1-ol] | ≤ 10
9 | Cc1c(-c2ccc3c(c2)OCCO3)cccc1-c1ccn2c(-c3ccc(C(=O)NCC(=O)O)cc3)cnc2c1 [Example 41, (4-(7-(3-(2,3-dihydrobenzo[b][1,4]dioxin-6-yl)-2-methylphenyl)imidazo[1,2-a]pyridin-3-yl)benzoyl)glycine] | 100 to 1000
10 | Cc1c(-c2ccc3c(c2)OCCO3)cccc1-c1ccn2c(-c3ccc(CN4CCC[C@H]4C(=O)O)cc3)cnc2c1 [Example 28, (4-(7-(3-(2,3-dihydrobenzo[b][1,4]dioxin-6-yl)-2-methylphenyl)imidazo[1,2-a]pyridin-3-yl)benzyl)-L-proline] | 100 to 1000
11 | Cc1c(-c2ccccc2)cccc1-c1ccn2c(-n3ccc(C(=O)NCCC(=O)O)n3)cnc2c1 [Example 47, N 3-(1-(7-(2-methyl-[1,1′-biphenyl]-3-yl)imidazo[1,2-a]pyridin-3-yl)-1H-pyrazole-3-carboxamido)propanoic acid] | 100 to 1000
12 | Cc1c(-c2ccc3c(c2)OCCO3)cccc1-c1ccn2c(-c3ccc(CN4CC(C(=O)O)C4)cc3)cnc2c1 [Example 25, 1-(4-(7-(3-(2,3-dihydrobenzo[b][1,4]dioxin-6-yl)-2-methylphenyl)imidazo[1,2-a]pyridin-3-yl)benzyl)azetidine-3-carboxylic acid] | 100 to 1000
13 | Cc1c(-c2ccc3c(c2)OCCO3)cccc1-c1ccn2c(-c3ccc(CN4CCCCC4C(=O)O)cc3)cnc2c1 (stereo not drawn) [Example 36, 1-(4-(7-(3-(2,3-dihydrobenzo[b][1,4]dioxin-6-yl)-2-methylphenyl)imidazo[1,2-a]pyridin-3-yl)benzyl)piperidine-2-carboxylic acid] | 100 to 1000
14 | Cc1c(-c2ccc3c(c2)OCCO3)cccc1-c1ccn2c(-c3ccc(CN4CCC[C@@H]4C(=O)O)cc3)nnc2c1 [Example 56, (4-(7-(3-(2,3-dihydrobenzo[b][1,4]dioxin-6-yl)-2-methylphenyl)-[1,2,4]triazolo[4,3-a]pyridin-3-yl)benzyl)-D-proline] | 10 to 100
15 | Cc1c(-c2ccccc2)cccc1-c1ccn2c(-c3ccc(CN4C[C@H](O)C[C@H]4C(=O)O)cc3)cnc2c1 [Example 4, (2S,4R)-4-hydroxy-1-(4-(7-(2-methyl-[1,1′-biphenyl]-3-yl)imidazo[1,2-a]pyridin-3-yl)benzyl)pyrrolidine-2-carboxylic acid] | 100 to 1000
16 | Cc1c(-c2ccccc2)cccc1-c1ccn2c(-c3ccc(CN4CCC[C@@H]4C(=O)O)cc3)nnc2c1 [Example 58, (4-(7-(2-methyl-[1,1′-biphenyl]-3-yl)-[1,2,4]triazolo[4,3-a]pyridin-3-yl)benzyl)-D-proline] | 10 to 100
17 | Cc1c(Nc2nccc3cc(CN4CC[C@@H](O)C4)cnc23)cccc1-c1cccc(-c2ccn3c(-c4ccc(CNCCO)cc4)nnc3c2)c1C [Example 81, (R)-1-((8-((3′-(3-(4-(((2-hydroxyethyl)amino)methyl)phenyl)-[1,2,4]triazolo[4,3-α]pyridin-7-yl)-2,2′-dimethyl-[1,1′-biphenyl]-3-yl)amino)-1,7-naphthyridin-3-yl)methyl)pyrrolidin-3-ol] | ≤ 10
18 | Cc1c(-c2ccc(CNCCO)cc2)cccc1-c1cccc(-c2ccn3nc(CNCCO)nc3c2)c1C [Example 98, 2-(((7-(4″-(((2-hydroxyethyl)amino)methyl)-2,2′-dimethyl-[1,1′:3′,1″-terphenyl]-3-yl)-[1,2,4]triazolo[1,5-a]pyridin-2-yl)methyl)amino)ethan-1-ol] | 10 to 100
19 | Cc1c(NC(=O)c2ccc(CNCCO)cn2)cccc1-c1cccc(-c2ccn3c(CNC[C@@H]4CCC(=O)N4)nnc3c2)c1C [Example 95, (S)—N-(2,2′-dimethyl-3′-(3-((((5-oxopyrrolidin-2-yl)methyl)amino)methyl)-[1,2,4]triazolo[4,3-a]pyridin-7-yl)-[1,1′-biphenyl]-3-yl)-5-(((2-hydroxyethyl)amino)methyl)picolinamide] | ≤ 10
20 | Cc1c(-c2ccc(CNCCO)cc2)cccc1-c1cccc(-c2ccn3c(-c4ccc(CN5CCC[C@@H]5C(=O)O)cc4)nnc3c2)c1C [Example 62, (4-(7-(4″-(((2-hydroxyethyl)amino)methyl)-2,2′-dimethyl-[1,1′:3′,1″-terphenyl]-3-yl)-[1,2,4]triazolo[4,3-a]pyridin-3-yl)benzyl)-D-proline] | ≤ 10
21 | Cc1c(NC(=O)c2ccc(CNC[C@H]3CCC(=O)N3)cn2)cccc1-c1cccc(-c2ccn3c(-c4ccc(CNC[C@H]5CCC(=O)N5)cc4)nnc3c2)c1C [Example 71, N-(2,2′-dimethyl-31-(3-(4-(((((R)-5-oxopyrrolidin-2-yl)methyl)amino)methyl)phenyl)-[1,2,4]triazolo[4,3-α]pyridin-7-yl)-[1,1′-biphenyl]-3-yl)-5-(((((R)-5-oxopyrrolidin-2-yl)methyl)amino)methyl)picolinamide] | 10 to 100
22 | COc1nc(-c2cccc(-c3cccc(-c4ccc5nnc(CNC[C@@H]6CCC(=O)N6)n5c4)c3C)c2C)cnc1CNC[C@@H]1CCC(=O)N1 [Example 94, (S)-5-((((5-(2,2′-dimethyl-3′-(3-(((((S)-5-oxopyrrolidin-2-yl)methyl)amino)methyl)-[1,2,4]triazolo[4,3-a]pyridin-6-yl)-[1,1′-biphenyl]-3-yl)-3-methoxypyrazin-2-yl)methyl)amino)methyl)pyrrolidin-2-one] | ≤ 10
23 | Cc1c(-c2ccc3c(c2)OCCO3)cccc1-c1ccn2c(-c3ccc(CN4CC[C@H]4C(=O)O)cc3)cnc2c1 [Example 26, (S)-1-(4-(7-(3-(2,3-dihydrobenzo[b][1,4]dioxin-6-yl)-2-methylphenyl)imidazo[1,2-a]pyridin-3-yl)benzyl)azetidine-2-carboxylic acid] | 100 to 1000
24 | Cc1c(-c2ccccc2)cccc1-c1ccn2c(C#CCN3CCC[C@@H]3C(=O)O)cnc2c1 [Example 50, (3-(7-(2-methyl-[1,1′-biphenyl]-3-yl)imidazo[1,2-a]pyridin-3-yl)prop-2-yn-1-yl)-D-proline] | 100 to 1000
25 | CC(C)(CO)NCc1ccc(-c2cccc(-c3cccc(-c4ccn5nc(CNCCO)nc5c4)c3Cl)c2Cl)cc1 [Example 112, 2-(((2′,2″-dichloro-3″-(2-(((2-hydroxyethyl)amino)methyl)-[1,2,4]triazolo[1,5-a]pyridin-7-yl)-[1,1′:3′,1″-terphenyl]-4-yl)methyl)amino)-2-methylpropan-1-ol] | 10 to 100
26 | Cc1c(-c2ccccc2)cccc1-c1ccn2c(-c3ccc(CNC4(C(=O)O)COC4)cc3)cnc2c1 [Example 3, 3-((4-(7-(2-methyl-[1,1′-biphenyl]-3-yl)imidazo[1,2-a]pyridin-3-yl)benzyl)amino)oxetane-3-carboxylic acid] | 100 to 1000
27 | Cc1c(-c2ccccc2)cccc1-c1ccn2c(-c3ccc(CN4CCCCC4C(=O)O)cc3)cnc2c1 (racemic) [Example 1, 1-(4-(7-(2-methyl-[1,1′-biphenyl]-3-yl)imidazo[1,2-a]pyridin-3-yl)benzyl) piperidine-2-carboxylic acid] | 100 to 1000
